According to US9023852B2, “1, 2, 4-thiadiazol-5-ylpiperazine derivatives useful in the treatment of neurodegenerative diseases” (Remynd NV, priority 2011, dated 2015):
pEC50: −log10 of the molar value.

System: M17—3TAU(P301L) cells
Experiment: Neuroblastoma tauopathy model: inhibition of TAU-induced cytotoxicity (LDH)
Assay type: cell-based
Conditions: Homo sapiens, 168 h; inhibition of TAU-induced toxicity (LDH), 7 days differentiation with retinoic acid
Excerpt: A TAU expression plasmid was constructed by sub-cloning the cDNA encoding for human TAU-P301L protein, wherein proline at position 301 is substituted by a leucine residue, into mammalian expression vector pcDNA3.1 resulting in the plasmid pcDNA3.1-TAUP301L. Plasmids pcDNA3.1 and pcDNA3.1-TAU P301L were transfected into human neuroblastoma cells (BE-M17; ATCC No. CRL-2267™) using lipofectamine reagent and subsequently, independent clonal cell lines with the plasmids stably integrated into the genome were selected by antibiotic resistance selection (Geneticin (G418)), resulting in cell lines M17.pcDNA3 and M17—3TAUP301L. Expression of the TAUP301L gene in the M17—3TAUP301L cells was confirmed by Western blot analysis.
Differentiation of the cells with RA leads to phosphorylation and subsequent aggregation of TAU, inducing a tauopathy in these cells. Cytotoxicity of cells was measured by quantification of lactate dehydrogenase (LDH) levels. In dead cells LDH is leaked out of the cells into the medium due to a loss of plasma-membrane integrity.
Briefly, 3 days preceding the experiment pre-cultures of M17.pcDNA3 and M17—3TAU(P301L) cells were prepared, starting from a stock culture, at a density of 50.000-100.000 cells/cm2 in detection medium (Optimem Reduced Serum without phenol red (Gibco, Cat. 31985-047) supplemented with 1% fetal calf serum (FCS), 1 mM sodium pyruvate, 1× non-essential amino acids (NEAA), 500 μg/ml G418 and 0.5× antibiotic/antimycotic (ABAM)). At the day of the experiment these precultures were diluted to ˜0, 1.106 cells/ml in detection medium without FCS and 60 μL of this suspension is dispensed per well into a 96-well microtiter plate. After 3 hours of incubation at 37° C./5% CO2 an equal volume of detection medium containing 2.5 μM RA was added and subsequently incubated for 7 days at 37° C./5% CO2. After 7 days, LDH activity was determined using the Promega Cytotox 96 Non-Radioactive cytotoxicity assay (Cat. G1780), according the manufacturer's instructions. Cytotoxicity is measured as the ratio of LDH increase in the supernatant divided by the LDH increase in the total cell suspension (sum of the LDH measured in cells and supernatant).
The M17—3TAU(P301L) cell line makes it possible to assess the ability of novel compounds to inhibit TAU-induced cytotoxicity. […] Compounds were tested for their ability to hamper TAU-induced toxicity at different concentrations, ranging from low non-effective concentrations to high potent concentrations. Afterwards, the dose-dependent inhibition curve was used to calculate their EC50 (Table 1).

`COc1ccc(CCN2CCN(c3nc(-c4ccc(C(F)(F)F)nc4)ns3)CC2)cc1` [Example 42, 1-[2-(4-Methoxy-phenyl)-ethyl]-4-[3-(6-trifluoromethyl-pyridin-3-yl)-[1,2,4]thiadiazol-5-yl]-piperazine] and `COc1ccc(CCN2CCN(c3nc(-c4ccc(F)cc4)ns3)CC2)cc1` [Example 47, 1-[3-(4-Fluoro-phenyl)-[1,2,4]thiadiazol-5-yl]-4-[2-(4-methoxy-phenyl)-ethyl]-piperazine] are within 0.2 log units of each other in pEC50: 9.52 for the first, 9.40 for the second.

`COc1ccc(CCN2CCN(c3nc(-c4ccncc4)ns3)CC2)cc1` [Example 43, 1-[2-(4-Methoxy-phenyl)-ethyl]-4-(3-pyridin-4-yl-[1,2,4]thiadiazol-5-yl)-piperazine] and `COc1ccc(CCN2CCN(c3nc(-c4cccs4)ns3)CC2)cc1` [Example 44, 1-[2-(4-Methoxy-phenyl)-ethyl]-4-(3-thiophen-2-yl-[1,2,4]thiadiazol-5-yl)-piperazine] are within 0.2 log units of each other in pEC50: 8.48 for the first, 8.64 for the second.

First: COc1ccc(CCN2CCN(c3nc(-c4ccccc4OC)ns3)CC2)cc1 [Example 45, 1-[2-(4-Methoxy-phenyl)-ethyl]-4-[3-(2-methoxy-phenyl)[1,2,4]thiadiazol-5-yl]-piperazine]
Second: COc1ccc(CCN2CCN(c3nc(-c4ccccc4Cl)ns3)CC2)cc1 [Example 58, 1-[3-(2-Chloro-phenyl)-[1,2,4]thiadiazol-5-yl]-4-[2-(4-methoxy-phenyl)-ethyl]-piperazine]
The pEC50 of the first is 0.49 log units higher: 9.15 for the first, 8.66 for the second. The first is the more potent here.

Going from `COc1ccc(CCN2CCN(c3nc(-c4cc(Cl)cc(Cl)c4)ns3)CC2)cc1` [Example 46, 1-[3-(3,5-Dichloro-phenyl)-[1,2,4]thiadiazol-5-yl]-4-[2-(4-methoxy-phenyl)-ethyl]-piperazine] to `COc1ccc(CCN2CCN(c3nc(-c4ccc(Cl)cc4F)ns3)CC2)cc1` [Example 56, 1-[3-(4-Chloro-2-fluoro-phenyl)-[1,2,4]thiadiazol-5-yl]-4-[2-(4-methoxy-phenyl)-ethyl]-piperazine], the pEC50 rises from 7.51 to 8.26 (0.75 log units). The second is the more potent here.

Compared with `COc1cccc(CCN2CCN(c3nc(-c4cccc(Cl)c4)ns3)CC2)c1` [Example 48, 1-[3-(3-Chloro-phenyl)-[1,2,4]thiadiazol-5-yl]-4-[2-(3-methoxy-phenyl)-ethyl]-piperazine], `COc1cccc(CCN2CCN(c3nc(-c4ccc(Cl)cc4F)ns3)CC2)c1` [Example 55, 1-[3-(4-Chloro-2-fluoro-phenyl)-[1,2,4]thiadiazol-5-yl]-4-[2-(3-methoxy-phenyl)-ethyl]-piperazine] is 0.84 log units lower in pEC50: 9.22 for the first, 8.38 for the second. The first is the more potent here.

Going from `COc1ccc(-c2nsc(N3CCN(CCc4cccc(OC)c4)CC3)n2)cc1` [Example 49, 1-[2-(3-Methoxy-phenyl)-ethyl]-4-[3-(4-methoxy-phenyl)-[1,2,4]thiadiazol-5-yl]-piperazine] to `CC(C)Oc1cccc(CCN2CCN(c3nc(-c4ccc(Cl)cc4)ns3)CC2)c1` [Example 51, 1-[3-(4-Chloro-phenyl)-[1,2,4]thiadiazol-5-yl]-4-[2-(3-isopropoxy-phenyl)-ethyl]-piperazine], the pEC50 falls from 7.30 to 6.82 (0.48 log units). The first is the more potent here.

First: CCOc1ccc(CCN2CCN(c3nc(-c4ccc(Cl)cc4)ns3)CC2)cc1 [Example 50, 1-[3-(4-Chloro-phenyl)-[1,2,4]thiadiazol-5-yl]-4-[2-(4-ethoxy-phenyl)-ethyl]-piperazine]
Second: CC(C)Oc1ccc(CCN2CCN(c3nc(-c4ccc(Cl)cc4)ns3)CC2)cc1 [Example 71, 1-[3-(4-Chloro-phenyl)-[1,2,4]thiadiazol-5-yl]-4-[2-(4-isopropoxy-phenyl)-ethyl]-piperazine]
The pEC50 of the first is 0.40 log units higher: 6.77 for the first, 6.37 for the second. The first is the more potent here.

First: COc1ccc(CCCN2CCN(c3nc(-c4ccc(Cl)cc4)ns3)CC2)cc1 [Example 52, 1-[3-(4-Chloro-phenyl)-[1,2,4]thiadiazol-5-yl]-4-[3-(4-methoxy-phenyl)-propyl]-piperazine]
Second: FC(F)Oc1ccc(CCN2CCN(c3nc(-c4ccc(Cl)cc4)ns3)CC2)cc1 [Example 70, 1-[3-(4-Chloro-phenyl)-[1,2,4]thiadiazol-5-yl]-4-[2-(4-difluoromethoxy-phenyl)-ethyl]-piperazine]
The pEC50 of the first is 0.22 log units lower: 6.49 for the first, 6.71 for the second.

Going from `COc1ccc(C(=O)CN2CCN(c3nc(-c4ccc(Cl)cc4)ns3)CC2)cc1` [Example 53, 2-{4-[3-(4-Chloro-phenyl)-[1,2,4]thiadiazol-5-yl]-piperazin-1-yl}-1-(4-methoxy-phenyl)-ethanone] to `C=C(CN1CCN(c2nc(-c3ccc(Cl)cc3)ns2)CC1)c1ccc(OC)cc1` [Example 59, 1-[3-(4-Chloro-phenyl)-[1,2,4]thiadiazol-5-yl]-4-[2-(4-methoxy-phenyl)-allyl]-piperazine], the pEC50 falls from 7.90 to 7.12 (0.78 log units). The first is the more potent here.

Compared with `COc1ccc(C(O)CN2CCN(c3nc(-c4ccc(Cl)cc4)ns3)CC2)cc1` (stereo not drawn) [Example 54, 2-{4-[3-(4-Chloro-phenyl)-[1,2,4]thiadiazol-5-yl]-piperazin-1-yl}-1-(4-methoxy-phenyl)-ethanol], `COc1ccc(C(F)CN2CCN(c3nc(-c4ccc(Cl)cc4)ns3)CC2)cc1` (stereo not drawn) [Example 64, 1-[3-(4-Chloro-phenyl)-[1,2,4]thiadiazol-5-yl]-4-[2-fluoro-2-(4-methoxy-phenyl)-ethyl]-piperazine] is 0.22 log units higher in pEC50: 7.79 for the first, 8.01 for the second. The second is the more potent here.

Compared with `COc1cccc(CCN2CCN(c3nc(-c4ccccc4Cl)ns3)CC2)c1` [Example 57, 1-[3-(2-Chloro-phenyl)-[1,2,4]thiadiazol-5-yl]-4-[2-(3-methoxy-phenyl)-ethyl]-piperazine], `COc1cccc(CCN2CCN(c3nc(-c4ccc(F)cc4OC)ns3)CC2)c1` [Example 66, 1-[3-(4-Fluoro-2-methoxy-phenyl)-[1,2,4]thiadiazol-5-yl]-4-[2-(3-methoxy-phenyl)-ethyl]-piperazine] is 0.98 log units higher in pEC50: 7.84 for the first, 8.82 for the second. The second is the more potent here.

Compared with `COc1cccc(C(=O)CN2CCN(c3nc(-c4ccc(Cl)cc4)ns3)CC2)c1` [Example 60, 2-{4-[3-(4-Chloro-phenyl)-[1,2,4]thiadiazol-5-yl]-piperazin-1-yl}-1-(3-methoxy-phenyl)-ethanone], `O=C(CN1CCN(c2nc(-c3ccc(Cl)cc3)ns2)CC1)c1cccc(F)c1` [Example 62, 2-{4-[3-(4-Chloro-phenyl)-[1,2,4]thiadiazol-5-yl]-piperazin-1-yl}-1-(3-fluoro-phenyl)-ethanone] is 0.23 log units lower in pEC50: 7.39 for the first, 7.16 for the second. The first is the more potent here.

`COc1cccc(C(O)CN2CCN(c3nc(-c4ccc(Cl)cc4)ns3)CC2)c1` (stereo not drawn) [Example 61, 2-{4-[3-(4-Chloro-phenyl)-[1,2,4]thiadiazol-5-yl]-piperazin-1-yl}-1-(3-methoxy-phenyl)-ethanol] and `COc1cccc(C(F)CN2CCN(c3nc(-c4ccc(Cl)cc4)ns3)CC2)c1` (stereo not drawn) [Example 65, 1-[3-(4-Chloro-phenyl)-[1,2,4]thiadiazol-5-yl]-4-[2-fluoro-2-(3-methoxy-phenyl)-ethyl]-piperazine] are within 0.2 log units of each other in pEC50: 7.35 for the first, 7.22 for the second.

First: OC(CN1CCN(c2nc(-c3ccc(Cl)cc3)ns2)CC1)c1cccc(F)c1 (stereo not drawn) [Example 63, 2-{4-[3-(4-Chloro-phenyl)-[1,2,4]thiadiazol-5-yl]-piperazin-1-yl}-1-(3-fluoro-phenyl)-ethanol]
Second: COc1ccc(C(C)CN2CCN(c3nc(-c4ccc(Cl)cc4)ns3)CC2)cc1 (stereo not drawn) [Example 72, 1-[3-(4-Chloro-phenyl)-[1,2,4]thiadiazol-5-yl]-4-[2-(4-methoxy-phenyl)-propyl]-piperazine]
The pEC50 of the first is 1.10 log units higher: 8.13 for the first, 7.03 for the second.

First: COc1ccc(CCN2CCN(c3nc(-c4ccc(F)cc4OC)ns3)CC2)cc1 [Example 67, 1-[3-(4-Fluoro-2-methoxy-phenyl)-[1,2,4]thiadiazol-5-yl]-4-[2-(4-methoxy-phenyl)-ethyl]-piperazine]
Second: COc1cc(CCN2CCN(c3nc(-c4ccc(Cl)cc4)ns3)CC2)ccn1 [Example 75, 1-[3-(4-Chloro-phenyl)-[1,2,4]thiadiazol-5-yl]-4-[2-(2-methoxy-pyridin-4-yl)-ethyl]-piperazine]
The pEC50 of the first is 1.13 log units higher: 9.00 for the first, 7.87 for the second. The first is the more potent here.

First: Clc1ccc(-c2nsc(N3CCN(CC4(c5ccc(Cl)cc5)CC4)CC3)n2)cc1 [Example 68, 1-[1-(4-Chloro-phenyl)-cyclopropylmethyl]-4-[3-(4-chloro-phenyl)-[1,2,4]thiadiazol-5-yl]-piperazine]
Second: COc1ccc(CC(C)N2CCN(c3nc(-c4ccc(Cl)cc4)ns3)CC2)cc1 (stereo not drawn) [Example 73, 1-[3-(4-Chloro-phenyl)-[1,2,4]thiadiazol-5-yl]-4-[2-(4-methoxy-phenyl)-1-methyl-ethyl]-piperazine]
The pEC50 of the first is 3.00 log units lower: 6.05 for the first, 9.05 for the second. The second is the more potent here.

`FC(F)Oc1cccc(CCN2CCN(c3nc(-c4ccc(Cl)cc4)ns3)CC2)c1` [Example 69, 1-[3-(4-Chloro-phenyl)-[1,2,4]thiadiazol-5-yl]-4-[2-(3-difluoromethoxy-phenyl)-ethyl]-piperazine] showed a pEC50 of 7.36.
